Measured values from ChEMBL document CHEMBL3885861, “Open TG-GATES”.

Species: Rattus norvegicus
Test: Open TG-GATES - Regimen: Daily Repeat
Type: toxicity, organism-based, Sprague-Dawley
Set-up: regimen Daily Repeat, gender Male, age 6 weeks
Details: in vivo, po, route gavage; for APTT / Bas / Eos / Fbg / Hb / Ht / Lym / MCH / MCHC / MCV / Mono / Neu / PT / Plat / RBC / Ret / WBC: tissue Blood; for KIDNEY_L / KIDNEY_R / KIDNEY_TOTAL: tissue Kidney; for LIVER: tissue Liver; for A/G / ALP / ALT / AST / BUN / CRE / Ca / Cl / DBIL / GLC / IP / K / LDH / Na / PL / RALB / TBIL / TC / TG / TP / gamma-GTP: tissue Plasma
[1] = 0 mg/kg, 72 h, dose level Control, time 3 day
[2] = 0 mg/kg, […], dose level Control, time 7 day
[3] = 0 mg/kg, […], dose level Control, time 14 day
[4] = 0 mg/kg, […], dose level Control, time 28 day
[5] = 8 mg/kg, 72 h, dose level Low, time 3 day
[6] = 8 mg/kg, […], dose level Low, time 7 day
[7] = 8 mg/kg, […], dose level Low, time 14 day
[8] = 8 mg/kg, […], dose level Low, time 28 day

NC1=NC(=O)C(c2ccccc2)O1 (centres undefined) [PEMOLINE]
TERMINAL_BW [1]: 236.5 g
APTT [1]: 16.2 s
Bas [1]: 0%
Eos [1]: 1%
Fbg [1]: 282.2 mg/dL
Hb [1]: 13.4 g/dL
Ht [1]: 39.7%
Lym [1]: 77.6%
MCH [1]: 21.7 pg
MCHC [1]: 33.7%
MCV [1]: 64.3 fL
Mono [1]: 3.4%
Neu [1]: 17.6%
PT [1]: 12.8 s
Plat [1]: 105.9 x10_4/uL
RBC [1]: 617.8 x10_4/ul
Ret [1]: 8%
WBC [1]: 90 x10_2/uL
KIDNEY_L [1]: 1 g
KIDNEY_R [1]: 1 g
KIDNEY_TOTAL [1]: 2 g
LIVER [1]: 11 g
A/G [1]: 0.9
ALP [1]: 1625 IU/L
ALT [1]: 43 IU/L
AST [1]: 70 IU/L
BUN [1]: 14.8 mg/dL
CRE [1]: 0.2 mg/dL
Ca [1]: 10.7 mg/dL
Cl [1]: 105.8 meq/L
DBIL [1]: 0.022 mg/dL
GLC [1]: 184 mg/dL
IP [1]: 7.6 mg/dL
K [1]: 3.9 meq/L
LDH [1]: 58.6 IU/L
Na [1]: 143 meq/L
PL [1]: 147.6 mg/dL
RALB [1]: 2.6 g/dL
TBIL [1]: 0.026 mg/dL
TC [1]: 86 mg/dL
TG [1]: 88.6 mg/dL
TP [1]: 5.5 g/dL
gamma-GTP [1]: 1 IU/L
TERMINAL_BW [2]: 274.2 g
TERMINAL_BW [3]: 326.9 g
TERMINAL_BW [4]: 438.2 g
APTT [2]: 17.2 s
Bas [2]: 0.2%
Eos [2]: 1%
Fbg [2]: 286.6 mg/dL
Hb [2]: 13.8 g/dL
Ht [2]: 40%
Lym [2]: 75.4%
MCH [2]: 21.6 pg
MCHC [2]: 34.4%
MCV [2]: 62.7 fL
Mono [2]: 3.4%
Neu [2]: 19.2%
PT [2]: 12.9 s
Plat [2]: 126.1 x10_4/uL
RBC [2]: 638.2 x10_4/ul
Ret [2]: 6.4%
WBC [2]: 103.3 x10_2/uL
APTT [3]: 17.8 s
Bas [3]: 0%
Eos [3]: 0.8%
Fbg [3]: 314 mg/dL
Hb [3]: 13.9 g/dL
Ht [3]: 39.7%
Lym [3]: 75.2%
MCH [3]: 21.3 pg
MCHC [3]: 35%
MCV [3]: 60.8 fL
Mono [3]: 2.2%
Neu [3]: 21.4%
PT [3]: 12.8 s
Plat [3]: 103.7 x10_4/uL
RBC [3]: 653.2 x10_4/ul
Ret [3]: 4.2%
WBC [3]: 86.4 x10_2/uL
APTT [4]: 17.4 s
Bas [4]: 0.2%
Eos [4]: 1%
Fbg [4]: 268.4 mg/dL
Hb [4]: 15.1 g/dL
Ht [4]: 42.3%
Lym [4]: 82.2%
MCH [4]: 20.2 pg
MCHC [4]: 35.7%
MCV [4]: 56.5 fL
Mono [4]: 2.6%
Neu [4]: 12.6%
PT [4]: 12.2 s
Plat [4]: 108.5 x10_4/uL
RBC [4]: 749.2 x10_4/ul
Ret [4]: 2.8%
WBC [4]: 121.3 x10_2/uL
KIDNEY_L [2]: 1.1 g
KIDNEY_R [2]: 1.1 g
KIDNEY_TOTAL [2]: 2.2 g
KIDNEY_L [3]: 1.3 g
KIDNEY_R [3]: 1.3 g
KIDNEY_TOTAL [3]: 2.6 g
KIDNEY_L [4]: 1.4 g
KIDNEY_R [4]: 1.4 g
KIDNEY_TOTAL [4]: 2.9 g
LIVER [2]: 13.2 g
LIVER [3]: 14.4 g
LIVER [4]: 18.9 g
A/G [2]: 0.9
ALP [2]: 1625.6 IU/L
ALT [2]: 41.4 IU/L
AST [2]: 68 IU/L
BUN [2]: 15.4 mg/dL
CRE [2]: 0.2 mg/dL
Ca [2]: 10.6 mg/dL
Cl [2]: 104.4 meq/L
DBIL [2]: 0.022 mg/dL
GLC [2]: 184 mg/dL
IP [2]: 7.2 mg/dL
K [2]: 3.8 meq/L
LDH [2]: 80.2 IU/L
Na [2]: 142 meq/L
PL [2]: 160.8 mg/dL
RALB [2]: 2.7 g/dL
TBIL [2]: 0.028 mg/dL
TC [2]: 84.2 mg/dL
TG [2]: 131.8 mg/dL
TP [2]: 5.8 g/dL
gamma-GTP [2]: 1 IU/L
A/G [3]: 0.8
ALP [3]: 1289.6 IU/L
ALT [3]: 46.2 IU/L
AST [3]: 71.8 IU/L
BUN [3]: 15.2 mg/dL
CRE [3]: 0.2 mg/dL
Ca [3]: 11.2 mg/dL
Cl [3]: 105.4 meq/L
DBIL [3]: 0.012 mg/dL
GLC [3]: 180.2 mg/dL
IP [3]: 8.3 mg/dL
K [3]: 3.6 meq/L
LDH [3]: 66.8 IU/L
Na [3]: 144.6 meq/L
PL [3]: 144.6 mg/dL
RALB [3]: 2.7 g/dL
TBIL [3]: 0.018 mg/dL
TC [3]: 78.8 mg/dL
TG [3]: 88.2 mg/dL
TP [3]: 6 g/dL
gamma-GTP [3]: 1 IU/L
A/G [4]: 0.8
ALP [4]: 980.4 IU/L
ALT [4]: 41.2 IU/L
AST [4]: 61.6 IU/L
BUN [4]: 16.6 mg/dL
CRE [4]: 0.2 mg/dL
Ca [4]: 11.4 mg/dL
Cl [4]: 104 meq/L
DBIL [4]: 0.018 mg/dL
GLC [4]: 182.2 mg/dL
IP [4]: 6.9 mg/dL
K [4]: 3.7 meq/L
LDH [4]: 68.8 IU/L
Na [4]: 143 meq/L
PL [4]: 160.2 mg/dL
RALB [4]: 2.8 g/dL
TBIL [4]: 0.022 mg/dL
TC [4]: 77.4 mg/dL
TG [4]: 215 mg/dL
TP [4]: 6.3 g/dL
gamma-GTP [4]: 1 IU/L
TERMINAL_BW [5]: 232.2 g
APTT [5]: 17.3 s
Bas [5]: 0%
Eos [5]: 1.2%
Fbg [5]: 275 mg/dL
Hb [5]: 13.5 g/dL
Ht [5]: 39.8%
Lym [5]: 77%
MCH [5]: 21.5 pg
MCHC [5]: 33.8%
MCV [5]: 63.5 fL
Mono [5]: 3.6%
Neu [5]: 18.2%
PT [5]: 12.8 s
Plat [5]: 112.1 x10_4/uL
RBC [5]: 627.2 x10_4/ul
Ret [5]: 7.3%
WBC [5]: 82.8 x10_2/uL
KIDNEY_L [5]: 1 g
KIDNEY_R [5]: 1 g
KIDNEY_TOTAL [5]: 1.9 g
LIVER [5]: 11.1 g
A/G [5]: 0.9
ALP [5]: 1587 IU/L
ALT [5]: 45.6 IU/L
AST [5]: 70.6 IU/L
BUN [5]: 15 mg/dL
CRE [5]: 0.2 mg/dL
Ca [5]: 10.8 mg/dL
Cl [5]: 105.6 meq/L
DBIL [5]: 0.018 mg/dL
GLC [5]: 182 mg/dL
IP [5]: 8.2 mg/dL
K [5]: 3.7 meq/L
LDH [5]: 58.8 IU/L
Na [5]: 143.6 meq/L
PL [5]: 155.8 mg/dL
RALB [5]: 2.7 g/dL
TBIL [5]: 0.03 mg/dL
TC [5]: 93 mg/dL
TG [5]: 84.4 mg/dL
TP [5]: 5.6 g/dL
gamma-GTP [5]: 1 IU/L
TERMINAL_BW [6]: 267.2 g
TERMINAL_BW [7]: 337.4 g
TERMINAL_BW [8]: 432.5 g
APTT [6]: 17.3 s
Bas [6]: 0.2%
Eos [6]: 1%
Fbg [6]: 286.6 mg/dL
Hb [6]: 13.8 g/dL
Ht [6]: 40.5%
Lym [6]: 79.4%
MCH [6]: 21.6 pg
MCHC [6]: 34.1%
MCV [6]: 63.2 fL
Mono [6]: 3%
Neu [6]: 16%
PT [6]: 12.8 s
Plat [6]: 119.7 x10_4/uL
RBC [6]: 641.4 x10_4/ul
Ret [6]: 5.9%
WBC [6]: 119.6 x10_2/uL
APTT [7]: 17.3 s
Bas [7]: 0%
Eos [7]: 1%
Fbg [7]: 297 mg/dL
Hb [7]: 14.2 g/dL
Ht [7]: 40.8%
Lym [7]: 74.8%
MCH [7]: 21.4 pg
MCHC [7]: 34.8%
MCV [7]: 61.3 fL
Mono [7]: 2.4%
Neu [7]: 21.4%
PT [7]: 12.7 s
Plat [7]: 109.6 x10_4/uL
RBC [7]: 665.6 x10_4/ul
Ret [7]: 4.6%
WBC [7]: 83 x10_2/uL
APTT [8]: 17.5 s
Bas [8]: 0%
Eos [8]: 1%
Fbg [8]: 251.8 mg/dL
Hb [8]: 15.2 g/dL
Ht [8]: 42%
Lym [8]: 70%
MCH [8]: 20.3 pg
MCHC [8]: 36.2%
MCV [8]: 56.2 fL
Mono [8]: 3.4%
Neu [8]: 24.6%
PT [8]: 12.5 s
Plat [8]: 97.4 x10_4/uL
RBC [8]: 746.4 x10_4/ul
Ret [8]: 3.1%
WBC [8]: 106.7 x10_2/uL
KIDNEY_L [6]: 1.2 g
KIDNEY_R [6]: 1.1 g
KIDNEY_TOTAL [6]: 2.3 g
KIDNEY_L [7]: 1.3 g
KIDNEY_R [7]: 1.3 g
KIDNEY_TOTAL [7]: 2.6 g
KIDNEY_L [8]: 1.6 g
KIDNEY_R [8]: 1.6 g
KIDNEY_TOTAL [8]: 3.2 g
LIVER [6]: 12.4 g
LIVER [7]: 14.9 g
LIVER [8]: 17.3 g
A/G [6]: 0.9
ALP [6]: 1719 IU/L
ALT [6]: 45 IU/L
AST [6]: 69.8 IU/L
BUN [6]: 15.8 mg/dL
CRE [6]: 0.2 mg/dL
Ca [6]: 10.5 mg/dL
Cl [6]: 103.8 meq/L
DBIL [6]: 0.014 mg/dL
GLC [6]: 180.8 mg/dL
IP [6]: 7.6 mg/dL
K [6]: 3.9 meq/L
LDH [6]: 62.6 IU/L
Na [6]: 142 meq/L
PL [6]: 152.6 mg/dL
RALB [6]: 2.6 g/dL
TBIL [6]: 0.026 mg/dL
TC [6]: 84.6 mg/dL
TG [6]: 94.4 mg/dL
TP [6]: 5.7 g/dL
gamma-GTP [6]: 1 IU/L
A/G [7]: 0.8
ALP [7]: 1588.8 IU/L
ALT [7]: 47.4 IU/L
AST [7]: 70.4 IU/L
BUN [7]: 14.8 mg/dL
CRE [7]: 0.2 mg/dL
Ca [7]: 11.1 mg/dL
Cl [7]: 105.6 meq/L
DBIL [7]: 0.014 mg/dL
GLC [7]: 179.2 mg/dL
IP [7]: 8.2 mg/dL
K [7]: 3.7 meq/L
LDH [7]: 75 IU/L
Na [7]: 144.6 meq/L
PL [7]: 150.4 mg/dL
RALB [7]: 2.7 g/dL
TBIL [7]: 0.028 mg/dL
TC [7]: 80 mg/dL
TG [7]: 117 mg/dL
TP [7]: 5.8 g/dL
gamma-GTP [7]: 1 IU/L
A/G [8]: 0.8
ALP [8]: 966.8 IU/L
ALT [8]: 41.4 IU/L
AST [8]: 63.2 IU/L
BUN [8]: 15.2 mg/dL
CRE [8]: 0.2 mg/dL
Ca [8]: 11.4 mg/dL
Cl [8]: 104.8 meq/L
DBIL [8]: 0.016 mg/dL
GLC [8]: 192.2 mg/dL
IP [8]: 7.5 mg/dL
K [8]: 3.9 meq/L
LDH [8]: 61.8 IU/L
Na [8]: 142.6 meq/L
PL [8]: 154.6 mg/dL
RALB [8]: 2.8 g/dL
TBIL [8]: 0.028 mg/dL
TC [8]: 84.4 mg/dL
TG [8]: 121.4 mg/dL
TP [8]: 6.1 g/dL
gamma-GTP [8]: 1 IU/L
